Test results as given in patent US12552758B2, “Inhibitors of MLH1 and/or PMS2 for cancer treatment” (NeoPhore Limited, priority 2020, dated 2026).

Key:
[1] = biological target: recombinant N-terminal MLH1 (residues 15-340) (Homo sapiens (Human), UniProt P40692); assay: Fluorescence polarisation assay for MLH1 (protocol for all Examples except Examples 64, 76, 90 and 95); assay type: binding; settings: FP probe displacement; 100 nM N-terminal MLH1, 5 nM probe compound, read after 15 minutes; all Examples except 64, 76, 90 and 95
recombinant N-terminal MLH1 (residues 15-340), sequence (P40692 15-340): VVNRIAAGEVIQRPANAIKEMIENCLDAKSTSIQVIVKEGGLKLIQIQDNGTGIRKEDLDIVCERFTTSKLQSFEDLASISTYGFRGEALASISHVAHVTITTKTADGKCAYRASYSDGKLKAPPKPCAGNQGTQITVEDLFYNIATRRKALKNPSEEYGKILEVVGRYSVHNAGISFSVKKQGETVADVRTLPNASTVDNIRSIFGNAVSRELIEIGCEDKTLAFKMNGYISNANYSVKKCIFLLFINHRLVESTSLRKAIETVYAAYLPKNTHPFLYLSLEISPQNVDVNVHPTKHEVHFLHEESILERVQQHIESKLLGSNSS
Procedure: Fluorescence Polarisation Assay for MLH1 (Protocol for all Examples Except Examples 64, 76, 90 and 95)
(§1) Test compounds, as 10 mM DMSO stocks, were dispensed into a Black Fluotrac 200 384 well medium binding plate (Greiner Bio-One, item number 781076) using a Labcyte Echo acoustic liquid handler. For single point screening, test compounds were added to wells in columns 1-22 whilst DMSO was added to wells in columns 23 and 24 in order to normalise the plate. For potency determination, serial dilutions of test compounds were added to wells in columns 3-22 and DMSO volume was normalised across the plate.
20 μL assay buffer was added to all wells in columns 1 and 24 (column 24 only for single point screening) using a MultiDrop Combi (ThermoFisher). Plates were centrifuged for 1 minute at 250×g and were incubated at room temperature for 30 minutes prior to the addition of 20 μL of 2×(10 nM) of 5-((5-(4-((2-(2,4-dihydroxy-5-isopropylbenzoyl)isoindolin-5-yl)methyl)piperazin-1-yl)pentyl)carbamoyl)-2-(6-(dimethylamino)-3-(dimethyliminio)-3H-xanthen-9-yl)benzoate (referred to hereinafter as “probe compound”) in assay buffer (prepared from a 100 μM DMSO stock) with a MultiDrop Combi (ThermoFisher). The final concentration of N-terminal MLH1 was 100 nM and the final concentration of probe compound was 5 nM.
(§2) Compound plates were centrifuged for 1 minute at 250×g for 1 minute and were incubated at room temperature for 15 minutes before being read on a PheraStar FSX (fitted with 384-well aperture spoon and 540 590 590 FP optic module). The gain and focus were adjusted before each plate was read so that the polarisation of a no enzyme control (column 24) was equal to 35 mP. Data were normalised against the no inhibitor controls (column 23) and no enzyme controls (column 24).

[2] = biological target: recombinant N-terminal PMS2 (residues 1-365) (Homo sapiens (Human), UniProt P54278); assay: Fluorescence polarisation assay for PMS2; assay type: binding; settings: FP probe displacement; 10 nM N-terminal PMS2, 5 nM probe compound, read after 1 hour
recombinant N-terminal PMS2 (residues 1-365), sequence (P54278 1-365): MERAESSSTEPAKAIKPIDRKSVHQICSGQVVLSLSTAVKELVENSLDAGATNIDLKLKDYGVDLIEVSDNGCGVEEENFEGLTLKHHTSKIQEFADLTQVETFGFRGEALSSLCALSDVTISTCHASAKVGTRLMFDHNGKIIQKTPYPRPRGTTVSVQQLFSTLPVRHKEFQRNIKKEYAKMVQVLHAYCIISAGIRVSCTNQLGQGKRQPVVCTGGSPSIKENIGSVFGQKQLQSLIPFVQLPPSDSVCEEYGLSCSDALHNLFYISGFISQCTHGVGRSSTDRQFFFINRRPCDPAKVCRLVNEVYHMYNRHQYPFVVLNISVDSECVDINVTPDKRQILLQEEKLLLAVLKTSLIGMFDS
Procedure: Fluorescence Polarisation Assay for PMS2
as §1
20 μL assay buffer was added to all wells in columns 1 and 24 (column 24 only for single point screening) using a MultiDrop Combi (ThermoFisher). Plates were centrifuged for 1 minute at 250×g and were incubated at room temperature for 30 minutes prior to the addition of 20 μL of 2×([…]) of 5-((5-(4-((2-(2,4-dihydroxy-5-isopropylbenzoyl)isoindolin-5-yl)methyl)piperazin-1-yl)pentyl)carbamoyl)-2-(6-(dimethylamino)-3-(dimethyliminio)-3H-xanthen-9-yl)benzoate (referred to hereinafter as “probe compound”) in assay buffer (prepared from a 100 μM DMSO stock) with a MultiDrop Combi (ThermoFisher). The final concentration of N-terminal PMS2 was 10 nM and the final concentration of probe compound was 5 nM.
as §2, with “1 hour” for “15 minutes”

Compound	IC50 [1] [µM]	IC50 [2] [µM]
Cc1cccc(COc2cc(O)cc(O)c2C(=O)N2Cc3cccnc3C2)c1 [Example 32, 5,7-dihydropyrrolo[3,4-b]pyridin-6-yl-[2,4-dihydroxy-6-(m-tolylmethoxy)phenyl]methanone]	1 to 10	< 1
Cc1c(O)cc(O)c(C(=O)N2Cc3cccnc3C2)c1OCc1ccccn1 [Example 33, 5,7-dihydropyrrolo[3,4-b]pyridin-6-yl-[4,6-dihydroxy-3-methyl-2-(2-pyridylmethoxy)phenyl]methanone]	> 10	1 to 10
Cc1c(O)cc(O)c(C(=O)N2Cc3ccccc3C2)c1OCc1ccccn1 [Example 34, [4,6-dihydroxy-3-methyl-2-(2-pyridylmethoxy)phenyl]-isoindolin-2-yl-methanone]	> 10	1 to 10
O=C(c1c(O)cc(O)cc1OCc1ccccn1)N1Cc2cccnc2C1 [Example 35, 5,7-dihydropyrrolo[3,4-b]pyridin-6-yl-[2,4-dihydroxy-6-(2-pyridylmethoxy)phenyl]methanone]	1 to 10	1 to 10
Cc1c(O)cc(O)c(C(=O)N2CCc3ccccc3C2)c1OCc1ccccc1 [Example 36, (2-benzyloxy-4,6-dihydroxy-3-methyl-phenyl)-(3,4-dihydro-1H-isoquinolin-2-yl)methanone]	> 10	< 1
O=C(c1c(O)cc(O)cc1OCc1ccccn1)N1Cc2ccccc2C1 [Example 37, [2,4-dihydroxy-6-(2-pyridylmethoxy)phenyl]-isoindolin-2-yl-methanone]	1 to 10	1 to 10
Cc1c(O)cc(O)c(C(=O)N2Cc3cccc(CO)c3C2)c1OCc1ccccc1 [Example 39, (2-benzyloxy-4,6-dihydroxy-3-methyl-phenyl)-[4-(hydroxymethyl)isoindolin-2-yl]methanone]	> 10	< 1
Cc1c(O)cc(O)c(C(=O)N2Cc3ccc(CN4CCN(C)CC4)cc3C2)c1OCc1ccccc1 [Example 40, (2-benzyloxy-4,6-dihydroxy-3-methyl-phenyl)-[5-[(4-methylpiperazin-1-yl)methyl]isoindolin-2-yl]methanone]	> 10	< 1
COc1ccc2c(c1)CCN(C(=O)c1c(O)cc(O)c(C)c1OCc1ccccc1)C2 [Example 41, (2-benzyloxy-4,6-dihydroxy-3-methyl-phenyl)-(6-methoxy-3,4-dihydro-1H-isoquinolin-2-yl)methanone]	> 10	< 1
Cc1c(O)cc(O)c(C(=O)N2CCc3ccncc3C2)c1OCc1ccccc1 [Example 42, (2-benzyloxy-4,6-dihydroxy-3-methyl-phenyl)-(3,4-dihydro-1H-2,7-naphthyridin-2-yl)methanone]	> 10	1 to 10
Cc1c(O)cc(O)c(C(=O)N2CCc3cnccc3C2)c1OCc1ccccc1 [Example 43, (2-benzyloxy-4,6-dihydroxy-3-methyl-phenyl)-(3,4-dihydro-1H-2,6-naphthyridin-2-yl)methanone]	> 10	1 to 10
Cc1cccc(COc2c(C)c(O)cc(O)c2C(=O)N2CCc3ccccc3C2)c1 [Example 44, 3,4-dihydro-1H-isoquinolin-2-yl-[4,6-dihydroxy-3-methyl-2-(m-tolylmethoxy)phenyl]methanone]	> 10	< 1
COc1ccc2c(c1)CCN(C(=O)c1c(O)cc(O)c(C)c1OCc1ccccn1)C2 [Example 47, [4,6-dihydroxy-3-methyl-2-(2-pyridylmethoxy)phenyl]-(6-methoxy-3,4-dihydro-1H-isoquinolin-2-yl)methanone]	> 10	> 10
Cc1c(O)cc(O)c(C(=O)N2CCc3ccccc3C2)c1OCc1ccc(F)cc1 [Example 48, 3,4-dihydro-1H-isoquinolin-2-yl-[2-[(4-fluorophenyl)methoxy]-4,6-dihydroxy-3-methyl-phenyl]methanone]	> 10	< 1
